Reference: article PMC8553373 (The Journal of Biological Chemistry, 2021)
Entries after “also recorded” stand apart in the source; their conditions may differ. Where two headings read alike, the source gives them in different places.

What was measured:
[1] = target: wild-type Nsp9COV19 as substrate of Nsp12COV19 NiRAN domain (Severe acute respiratory syndrome coronavirus 2, UniProt P0DTD1); assay type: biochemical; conditions: for Nsp9COV19 Cy3-modification, % of the signal of DMSO-only control reactions: 500 μM compound, 15 μM Nsp9COV19, 1 μM Nsp12COV19, triplicate
[2] = tested on: SARS-CoV-2; assay type: cell-based
[3] = tested on: Calu-3 cells
[4] = tested on: Vero 81 cells; conditions: Vero 81, highest 50 μM concentration point
[5] = tested on: Vero e6 cells; conditions: Vero e6, highest 50 μM concentration point
[6] = tested on: SARS-CoV-2; conditions: cited from earlier work
[7] = target: Nsp9COV19 (Severe acute respiratory syndrome coronavirus 2, UniProt P0DTD1); design: species or system SARS-CoV-2; conditions: native MS; binding ratios after incubation with 50 μM of each compound

## C=C1C(=O)[C@]23[C@H](O)[C@H]1CC[C@H]2[C@@]12CO[C@]3(O)[C@@H](O)[C@@H]1C(C)(C)CC[C@@H]2O [Compound 1, Oridonin]
[1]
  Nsp9COV19 Cy3-modification, % of the signal of DMSO-only control reactions: 20 ± 6%
[1]; UMPylation assays, discussion
  inhibition of UMPylation reaction (in words): significant levels of inhibition
[2]
  viral titer following SARS-CoV-2 infection: reduce viral tite at all time points
[2]; Calu-3 cells, 15 μM, after 24 h
  viral titer following SARS-CoV-2 infection: approximately fivefold reduced
[2]; Calu-3 cells, 15 μM, later time points (48, 72 h)
  viral titer following SARS-CoV-2 infection: not maintained at later time points
[3]
  effect on cell proliferation (MTT): no effect on cell proliferation detected
[4]
  effect on cell proliferation (MTT): a degree of reduced proliferation
[5]
  effect on cell proliferation (MTT): a degree of reduced proliferation
[6]
  SARS-CoV-2 replication in in vitro cellular assays: inhibit SARS-CoV-2 replication

## C=C1C(=O)[C@]23[C@H](O)[C@H]1CC[C@H]2[C@@]12CO[C@@]3(O)[C@@H](O)[C@@H]1[C@](C)(COC(C)=O)CC[C@H]2O [Compound 3, Xerophilusin G]
[7]
  relative Nsp9COV19 binding / affinity (in words): significantly reduced binding response; also recorded: abrogated binding completely

## C=C1C(=O)[C@@]23[C@H](O)C[C@@H]4C(C)(C)CC[C@H](O)[C@@]4(CO)[C@@H]2CC[C@@H]1[C@H]3O [Compound 6, Kamebakaurin]
[7]
  relative Nsp9COV19 binding / affinity (in words): some ability to cocomplex with Nsp9COV19 is retained
[1]
  Nsp9COV19 Cy3-modification, % of the signal of DMSO-only control reactions: ~66%
